Measurements taken from US8987474B2 (University of South Florida, priority 2006, dated 2015).

Biological target: Shp2 (Homo sapiens (Human), UniProt Q06124)
Experiment: PTP activity assay (DiFMUP substrate) with GST-Shp2
Assay type: biochemical
Details: for IC50: Table II, Shp2
Source text: All constructs were verified by DNA sequencing.
Recombinant DEP1 was from Abcam.

Chain of Shp2 (Q06124 205-593): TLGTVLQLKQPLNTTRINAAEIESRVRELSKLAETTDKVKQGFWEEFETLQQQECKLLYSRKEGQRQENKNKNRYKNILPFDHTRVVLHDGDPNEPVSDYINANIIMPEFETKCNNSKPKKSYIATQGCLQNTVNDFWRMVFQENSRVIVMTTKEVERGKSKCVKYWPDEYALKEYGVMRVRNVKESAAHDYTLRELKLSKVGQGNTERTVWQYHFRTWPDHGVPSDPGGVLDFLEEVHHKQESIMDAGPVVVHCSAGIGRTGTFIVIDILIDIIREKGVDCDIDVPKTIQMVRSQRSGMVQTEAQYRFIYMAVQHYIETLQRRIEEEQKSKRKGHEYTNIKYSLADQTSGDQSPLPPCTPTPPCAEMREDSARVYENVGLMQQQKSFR

Row | SMILES | % PTP activity (concentration not given) | % PTP activity (at 20 μM) | IC50 [µM]
1 | O=C1Nc2ccc(S(=O)(=O)NCc3ccco3)cc2/C1=N/Nc1ccccc1[N+](=O)[O-] [RPM168, 3-[(2-Nitrophenyl)hydrazono]-2-oxo-2,3-dihydro-1H-indole-5-sulfonic acid (furan-2-ylmethyl)amide] | 42 + 4% (6) | – | –
2 | O=C1Nc2ccc(S(=O)(=O)NCc3ccncc3)cc2/C1=N/Nc1ccccc1[N+](=O)[O-] [RPM145, 3-[(2-Nitrophenyl)hydrazono]-2-oxo-2,3-dihydro-1H-indole-5-sulfonic acid (pyridin-4-ylmethyl)amide] | 37 + 11% (12) | – | –
3 | CCN1C(=O)/C(=N\Nc2ccccc2[N+](=O)[O-])c2cc(S(=O)(=O)N(C)C)ccc21 [RPM176, 1-Ethyl-3-[(2-nitro-phenyl)-hydrazono]-2-oxo-2,3-dihydro-1H-indole-5-sulfonic acid dimethylamide] | 50% ± 5% (6) | – | –
4 | O=C1Nc2ccc(C(=O)NCc3ccc(Cl)cc3)cc2/C1=N/Nc1ccccc1C(=O)O [HL2-070-4] | – | 30 ± 4% (2) at 20 μM | –
5 | CC(C)NS(=O)(=O)c1ccc2c(c1)/C(=N/Nc1cccc(C(=O)NCc3ccco3)c1)C(=O)N2 [RPM333, N-Furan-2-ylmethyl-3-[′-(5-isopropylsulfamoyl-2-oxo-1,2-dihydro-indol-3-ylidene)hydrazino]benzamide] | – | 48 ± 9% (2) at 20 μM | 33 to 100
6 | COc1cccc(CNS(=O)(=O)c2ccc3c(c2)/C(=N/Nc2ccccc2Cl)C(=O)N3)c1 [HL2-016-5] | 51 ± 4% (6) | – | –
7 | COC(=O)c1ccc2cc(C(=O)Nc3ccc(C(=O)O)cc3)ccc2c1 [RPM185] | – | 71 ± 3% (3) at 20 uM | –
8 | O=C1Nc2ccc(S(=O)(=O)O)cc2/C1=N/Nc1ccccc1C(F)(F)F [RPM221, 2-Oxo-3-[(2-trifluoromethylphenylhydrazono)]-2,3-dihydro-1H-indole-5-sulfonic acid] | – | 63 ± 4% (3) at 20 μM | 33 to 100
9 | COCCNC(=O)c1ccccc1N/N=C1\C(=O)Nc2ccc(S(=O)(=O)NC(C)C)cc21 [RPM285, 2-[N′-(5-Isopropylsulfamoyl-2-oxo-1,2-dihydro-indol-3-ylidene)-hydrazino]-N-(2-methoxyethyl)benzamide] | – | 51 ± 7% (2) At 20 μM | –
10 | O=C1Nc2ccc(C(=O)NCc3ccc(Cl)cc3)cc2/C1=N/Nc1cccc(C(=O)O)c1 [HL2-070-9] | – | 25 ± 2% (2) at 20 μM | –
11 | COCCNC(=O)c1cccc(N/N=C2\C(=O)Nc3ccc(S(=O)(=O)NC(C)C)cc32)c1 [RPM327, 3-[N′-(5-Isopropylsulfamoyl-2-oxo-1,2-dihydro-indol-3-ylidene)hydrazino]-N-(2-methoxyethyl)benzamide] | – | 44 + 7% (2) at 20 μM | –
12 | CN(C)CCNS(=O)(=O)c1ccc2c(c1)/C(=N/Nc1ccccc1Cl)C(=O)N2 [HL2-016-19] | 89 ± 3% (6) | – | –
13 | CN1C(=O)/C(=N\Nc2ccccc2[N+](=O)[O-])c2cc(S(=O)(=O)N(C)C)ccc21 [RPM154] | 73 ± 3% (6) | – | –
14 | O=C1Nc2ccc(S(=O)(=O)NCc3ccncc3)cc2/C1=N/Nc1ccccc1Cl [HL2-016-15] | 48 ± 5% (6) | – | –
15 | COC(=O)c1ccccc1/C=C1\C(=O)Nc2ccc(S(=O)(=O)NC(C)C)cc21 [RPM347, 2-(5-Isopropylsulfamoyl-2-oxo-1,2-dihydro-indol-3-ylidenemethyl)benzoic acid methyl ester] | – | 48 ± 9% (2) At 20 μM | –
16 | O=C(O)c1ccc2cc(C(=O)Nc3cccc(S(=O)(=O)O)c3)ccc2c1 [HL2-022-2] | 52 ± 17% (5) | – | –
17 | O=C1Nc2ccc(C(=O)O)cc2/C1=N/Nc1ccccc1F [RPM319] | – | 49 ± 4% (2) At 20 μM | > 100
18 | O=C1Nc2ccc(S(=O)(=O)O)cc2/C1=N/Nc1ccccc1F [RPM220, 2-Oxo-3-[(2-fluorophenylhydrazono)]-2,3-dihydro-1H-indole-5-sulfonic acid] | – | 73 ± 10% (3) at 20 μM | –
19 | O=C(O)c1ccc(NC(=O)c2ccc3cc(C(=O)O)ccc3c2)cc1 [RPM194] | – | 69 ± 7.5% (3) at 20 uM | –
20 | O=C1C=CC2C(=C1O)Oc1c(ccc(O)c1O)C2C1CCCCC1C(=O)O (centres unmarked) [NSC-119910, reference compound] | 0.56 ± 0.1% (3) | – | –
21 | COC(=O)c1ccc2cc(C(=O)Nc3c(O)cccc3C(=O)O)ccc2c1 [RPM202] | – | 58 ± 7% (3) at 20 uM | 33 to 100
22 | O=C1Nc2ccc(S(=O)(=O)O)cc2/C1=N/Nc1ccccc1C(=O)O [RPM211, 2-[N′-(2-Oxo-5-sulfo-1,2-dihydro-indol-3-ylidene)hydrazino]benzoic acid] | – | 67 ± 8% at 20 μM | 33 to 100
23 | O=C1Nc2ccc(S(=O)(=O)O)cc2/C1=N/Nc1cc(Cl)ccc1Cl [RPM225, 2-Oxo-3-[(2,5-dichlorophenylhydrazono)]-2,3-dihydro-1H-indole-5-sulfonic acid] | – | 73 ± 22% at 20 μM | 33 to 100
24 | CCN(CC)C(=O)c1ccc2c(c1)/C(=N/Nc1cccc(C(=O)O)c1)C(=O)N2 [HL2-070-2] | – | 57.16% (1) at 20 μM | –

Row | SMILES | % PTP activity (concentration not given) | % PTP activity (at 20 μM) | IC50 [µM]
25 | O=C1Nc2ccc(C(=O)O)cc2/C1=N/Nc1ccccc1Cl [RPM270] | – | 45 ± 18% (2) At 20 μM | 33 to 100
26 | COc1ccc(CNS(=O)(=O)c2ccc3c(c2)/C(=N/Nc2ccccc2Cl)C(=O)N3)cc1 [HL2-016-3] | 84 ± 24% (6) | – | –
27 | CCCNS(=O)(=O)c1ccc2c(c1)/C(=N/Nc1ccccc1[N+](=O)[O-])C(=O)N2 [RPM170, 3-[(2-Nitrophenyl)-hydrazono]-2-oxo-2,3-dihydro-1H-indole-5-sulfonic acid propylamide] | 43 ± 8% (12) | – | –
28 | CC(C)NS(=O)(=O)c1ccc2c(c1)/C(=N/Nc1cccc(C(N)=O)c1)C(=O)N2 [RPM325, 3-[N′-(5-Isopropylsulfamoyl-2-oxo-1,2-dihydro-indol-3-ylidene)hydrazino]benzamide] | – | 40 + 4% (2) at 20 μM | 33 to 100
29 | CC(C)NS(=O)(=O)c1ccc2c(c1)/C(=N/Nc1ccccc1C(=O)NCCN(C)C)C(=O)N2 [RPM284, N-(2-Dimethylaminoethyl)-2-[N′-(5-isopropylsulfamoyl-2-oxo-1,2-dihydro-indol-3-ylidene)hydrazino]benzamide] | – | 47 ± 6% (2) At 20 μM | –
30 | O=C1Nc2ccc(S(=O)(=O)O)cc2/C1=N/Nc1cccc([N+](=O)[O-])c1 [HL1-058-2] | 73 ± 7% (3) | – | 33 to 100
31 | CC(C)NS(=O)(=O)c1ccc2c(c1)/C(=C/Nc1ccccc1[N+](=O)[O-])C(=O)N2 [RPM303, 3-[(2-Nitrophenylamino)methylene]-2-oxo-2,3-dihydro-1H-indole-5-sulfonic acid isopropylamide] | – | 46 ± 1% (2) 20 μM | –
32 | CN(C)CCCNS(=O)(=O)c1ccc2c(c1)/C(=N/Nc1ccccc1Cl)C(=O)N2 [HL2-016-22] | 80 ± 0.7% (6) | – | –
33 | CC(C)NS(=O)(=O)c1ccc2c(c1)/C(=N/Nc1ccccc1C(=O)NCCN1CCOCC1)C(=O)N2 [RPM293, 2-[N′-(5-Isopropylsulfamoyl-2-oxo-1,2-dihydro-indol-3-ylidene)hydrazino]-N-(2-morpholin-4-yl-ethyl)benzamide] | – | 49 ± 6% (2) At 20 μM | –
34 | O=C1Nc2ccc(C(=O)O)cc2/C1=N/Nc1ccccc1 [RPM272, 3-(Phenylhydrazono)-2-oxo-2,3-dihydro-1H-indole-5-carboxylic acid] | – | 43 ± 4% at 20 μM | –
35 | COC(=O)c1ccccc1N/C=C1\C(=O)Nc2ccc(S(=O)(=O)NC(C)C)cc21 [RPM335, 2-[(5-Isopropylsulfamoyl-2-oxo-1,2-dihydro-indol-3-ylidenemethyl)amino]benzoic acid methyl ester] | – | 54.19% (1) At 20 μM | 33 to 100
36 | Cc1ccccc1N/N=C1\C(=O)Nc2ccc(S(=O)(=O)O)cc21 [RPM216, 2-Oxo-3-[(2-methylphenylhydrazono)]-2,3-dihydro-1H-indole-5-sulfonic acid] | – | 50 ± 14% (3) at 20 μM | –
37 | O=C1Nc2ccc(S(=O)(=O)NCC3CCCO3)cc2/C1=N/Nc1ccccc1Cl (centres unmarked) [HL2-016-14] | 42 ± 5% (6) | – | –
38 | CC(C)NS(=O)(=O)c1ccc2c(c1)/C(=N/Nc1cccc(C(=O)NCc3ccccc3)c1)C(=O)N2 [RPM328, N-Benzyl-3-[N′-(5-isopropylsulfamoyl-2-oxo-1,2-dihydro-indol-3-ylidene)hydrazino]benzamide] | – | 47 ± 3% (2) at 20 μM | –
39 | O=C(O)c1ccc2[nH]cc(C(=O)c3ccccc3)c2c1 [RPM352, 3-Benzoyl-1H-indole-5-carboxylic acid] | – | 57 ± 9% (2) at 20 μM | –
40 | O=C1Nc2ccc(S(=O)(=O)NCc3ccc(Cl)cc3)cc2/C1=C/Nc1ccccc1[N+](=O)[O-] [RPM310] | – | 66.20% (1) At 20 μM | –
41 | O=C1Nc2ccc(S(=O)(=O)O)cc2/C1=N/Nc1c(Cl)cccc1Cl [RPM218, 2-Oxo-3-[(2,6-dichlorophenylhydrazono)]-2,3-dihydro-1H-indole-5-sulfonic acid] | – | 53 ± 0.1% (2) at 20 μM | 33 to 100
42 | O=C1Nc2ccc(S(=O)(=O)O)cc2/C1=N/Nc1ccccc1Cl [HL1-058-1] | 69 ± 9% (2) | – | 33 to 100
43 | O=C1Nc2ccccc2/C1=N/Nc1ccccc1Cl [HL1-050-1] | 99 ± 2% (3) | – | 33 to 100
44 | CC(C)NS(=O)(=O)c1ccc2c(c1)/C(=N/Nc1cccc(C(=O)NCc3cccnc3)c1)C(=O)N2 [RPM332, 3-[N′-(5-Isopropylsulfamoyl-2-oxo-1,2-dihydro-indol-3-ylidene)hydrazino]-N-pyridin-3-ylmethylbenzamide] | – | 54 ± 7% (2) at 20 μM | 33 to 100
45 | O=C1Nc2ccc(S(=O)(=O)NCN3CCOCC3)cc2/C1=N/Nc1ccccc1Cl [HL2-016-8] | 41 ± 4% (6) | – | –
46 | CC(C)NS(=O)(=O)c1ccc2c(c1)/C(=N/Nc1cccc(C(=O)NCCN(C)C)c1)C(=O)N2 [RPM326, N-(2-Dimethylamino-ethyl)-3-[N′-(5-isopropylsulfamoyl-2-oxo-1,2-dihydro-indol-3-ylidene)hydrazino]benzamide] | – | 57 + 13% (2) at 20 μM | –
47 | CC(C)CNS(=O)(=O)c1ccc2c(c1)/C(=N/Nc1ccccc1Cl)C(=O)N2 [HL2-016-10] | 36 ± 17 (12) % | – | –
48 | CC(C)NC(=O)c1ccc2c(c1)/C(=N/Nc1cccc(C(=O)O)c1)C(=O)N2 [HL2-070-7] | – | 53.62% (1) at 20 μM | –
